Measurements: patent US11298363B2, “Triazolobenzazepines as vasopressin V1a receptor antagonists” (RICHTER GEDEON NYRT., priority 2017, dated 2022)

Key:
[1] = molecular target: T1, human vasopressin V1a receptor (Homo sapiens, UniProt P37288); assay: Functional assay on human vasopressin V1a receptor expressing cell line (intracellular Ca2+ fluorescence); format: cell-based; settings: 1321N1 cells, (Arg8)-vasopressin at EC80; read-out: IC50 (nM) on hV1a cell line
[2] = molecular target: T1, human vasopressin V1a receptor; assay: Human vasopressin V1a receptor binding assay; settings: 1321N1 cell membranes, [3H]vasopressin; read-out: Ki (nM) on hV1a cell line
Procedure, shortened: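 Radioligand competition on membranes from cells expressing human V1a receptor; incubation 60 minutes at 27° C., non-specific binding with 1.2×10^−6 M unlabeled (Arg^8)-vasopressin, filtration separation. Ki by Cheng-Prusoff using Scatchard-derived KD, from at least two independent experiments.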

T1 sequence (P37288 whole entry): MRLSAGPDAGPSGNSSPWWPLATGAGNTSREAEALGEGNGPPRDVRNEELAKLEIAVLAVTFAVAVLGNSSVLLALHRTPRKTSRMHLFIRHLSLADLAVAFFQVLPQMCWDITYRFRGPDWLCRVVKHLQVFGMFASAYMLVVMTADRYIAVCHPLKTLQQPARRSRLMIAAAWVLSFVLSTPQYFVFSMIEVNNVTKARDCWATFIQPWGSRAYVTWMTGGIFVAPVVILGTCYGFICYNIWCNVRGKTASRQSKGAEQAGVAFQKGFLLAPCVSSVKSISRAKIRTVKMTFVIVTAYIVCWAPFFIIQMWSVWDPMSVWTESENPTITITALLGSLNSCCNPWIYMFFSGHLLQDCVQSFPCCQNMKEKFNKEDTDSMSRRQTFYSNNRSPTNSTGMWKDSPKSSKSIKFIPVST

Row | IC50 [1] | Ki [2] | Structure (SMILES)
1 | 1.4 nM | 0.3 nM | CC(C)OC1Cc2cc(Cl)ccc2-n2c(nnc2[C@H]2CC[C@H](Oc3ccccn3)CC2)C1 (stereo partly drawn) [Example 105, 8-chloro-5-(propan-2-yloxy)-1-[trans-4-(pyridin-2-yloxy)cyclohexyl]-5,6-dihydro-4H-[1,2,4]triazolo[4,3-a][1]benzazepine]
2 | 1.8 nM | 0.1 nM | Clc1ccc2c(c1)CC1(Cc3nnc([C@H]4CC[C@H](Oc5ccccn5)CC4)n3-2)OCCCCO1 [Example 106, 8′-chloro-1′-[trans-4-(pyridin-2-yloxy)cyclohexyl]-4°,6′-spiro[1,3-dioxepane-2,5′-[1,2,4]triazolo[4,3-a][1]benzazepine]]
3 | 12 nM | 1 nM | OC1Cc2ccccc2-n2c(nnc2[C@H]2CC[C@H](Oc3ccccn3)CC2)C1 (stereo partly drawn) [Example 107, 1-[trans-4-(pyridin-2-yloxy)cyclohexyl]-5,6-dihydro-4H-[1,2,4]triazolo[4,3-a][1]benzazepin-5-ol]
4 | 4.9 nM | 0.2 nM | O=C([C@H]1CC[C@H](c2nnc3n2-c2ccc(Cl)cc2CC2(C3)OCCO2)CC1)N1CCOCC1 [Example 108, Trans-4-(8′-chloro-4′H,6′H-spiro[1,3-dioxolane-2,5′-[1,2,4]triazolo[4,3-a][1]benzazepin]-1′-yl)cyclohexyl(morpholin-4-yl)methanone]
5 | 2.7 nM | 0.4 nM | COC1Cc2ccccc2-n2c(nnc2[C@H]2CC[C@H](Oc3ccccn3)CC2)C1 (stereo partly drawn) [Example 109, 5-methoxy-1-[trans-4-(pyridin-2-yloxy)cyclohexyl]-5,6-dihydro-4H-[1,2,4]triazolo[4,3-a][1]benzazepine]
6 | 8.3 nM | 2.1 nM | O=C1Cc2cc(F)ccc2-n2c(nnc2[C@H]2CC[C@H](Oc3ccccn3)CC2)C1 [Example 110, 8-fluoro-1-[trans-4-(pyridin-2-yloxy)cyclohexyl]-4H-[1,2,4]triazolo[4,3-a][1]benzazepin-5(6H)-one]
7 | 2.4 nM | 0.3 nM | OC1Cc2cc(F)ccc2-n2c(nnc2[C@H]2CC[C@H](Oc3ccccn3)CC2)C1 (stereo partly drawn) [Example 111, 8-fluoro-1-[trans-4-(pyridin-2-yloxy)cyclohexyl]-5,6-dihydro-4H-[1,2,4]triazolo[4,3-a][1]benzazepin-5-ol]
8 | 213 nM | 45.4 nM | CC(C)(C)OC(=O)NC1Cc2cc(Cl)ccc2-n2c(nnc2[C@H]2CC[C@H](N3CCOCC3)CC2)C1 (stereo partly drawn) [Example 112, Tert-butyl {8-chloro-1-[trans-4-(morpholin-4-yl)cyclohexyl]-5,6-dihydro-4H-[1,2,4]triazolo[4,3-a][1]benzazepin-5-yl}carbamate]
9 | 305 nM | 21 nM | NC1Cc2cc(Cl)ccc2-n2c(nnc2[C@H]2CC[C@H](N3CCOCC3)CC2)C1 (stereo partly drawn) [Example 113, 8-chloro-1-[trans-4-(morpholin-4-yl)cyclohexyl]-5,6-dihydro-4H-[1,2,4]triazolo[4,3-a][1]benzazepin-5-amine]
10 | 205 nM | 26.5 nM | CC(C)NC1Cc2cc(Cl)ccc2-n2c(nnc2[C@H]2CC[C@H](N3CCOCC3)CC2)C1 (stereo partly drawn) [Example 114]
11 | 0.8 nM | 0.5 nM | CC(C)N1CC[C@]2(CC[C@@H](c3nnc4n3-c3ccc(Cl)cc3CC3(C4)OCCO3)CC2)C1=O [Example 115]
12 | 2.1 nM | 0.7 nM | CC(C)N1CC[C@]2(CC[C@@H](c3nnc4n3-c3ccc(Cl)cc3CC(O)C4)CC2)C1=O (stereo partly drawn) [Example 116, (5r,8r)-8-(8-chloro-5-hydroxy-5,6-dihydro-4H-[1,2,4]triazolo[4,3-a][1]benzazepin-1-yl)-2-(propan-2-yl)-2-azaspiro[4,5]decan-1-one]
13 | 4.3 nM | 0.9 nM | Clc1ccc2c(c1)C[C@H](N1CCCC1)Cc1nnc([C@H]3CC[C@H](Oc4ccccn4)CC3)n1-2 [Example 117, (5S)-8-chloro-1-[trans-4-pyridin-2-loxcyclohexyl]-5-(pyrrolidin-1-yl)-5,6-dihydro-4H-[1,2,4]triazolo[4,3-a][1]benzazepine]
14 | 251 nM | 66 nM | CC(C)(C)C(=O)N[C@H]1Cc2cc(Cl)ccc2-n2c(nnc2[C@H]2CC[C@H](Oc3ccccn3)CC2)C1 [Example 118]
15 | 111 nM | 27 nM | O=C(N[C@H]1Cc2cc(Cl)ccc2-n2c(nnc2[C@H]2CC[C@H](Oc3ccccn3)CC2)C1)C1CC1 [Example 119, N-{(5S)-8-chloro-1-[trans-4-(pyridin-2-yloxy)cyclohexyl]-5,6-dihydro-4H-[1,2,4]triazolo[4,3-a][1]benzazepin-5-yl}cyclopropanecarboxamide]
16 | 465 nM | 52 nM | CC(C)C(=O)N[C@H]1Cc2cc(Cl)ccc2-n2c(nnc2[C@H]2CC[C@H](Oc3ccccn3)CC2)C1 [Example 120, N-{(5S)-8-chloro-1-[trans-4-(pyridin-2-yloxy)cyclohexyl]-5,6-dihydro-4H-[1,2,4]triazolo[4,3-a][1]benzazepin-5-yl}-2-methylpropanamide]
17 | 442 nM | 79 nM | O=C(N[C@H]1Cc2cc(Cl)ccc2-n2c(nnc2[C@H]2CC[C@H](Oc3ccccn3)CC2)C1)C1CCC1 [Example 121, N-{(5S)-8-chloro-1-[trans-4-(pyridin-2-yloxy)cyclohexyl]-5,6-dihydro-4H-[1,2,4]triazolo[4,3-a][1]benzazepin-5-yl}cyclobutanecarboxamide]
18 | 14 nM | 3 nM | Clc1ccc2c(c1)C[C@H](N1CCOCC1)Cc1nnc([C@H]3CC[C@H](Oc4ccccn4)CC3)n1-2 [Example 122, (5S)-8-chloro-5-(morpholin-4-yl)-1-[trans-4-(pyridin-2-yloxy)cyclohexyl]-5,6-dihydro-4H-[1,2,4]triazolo[4,3-a][1]benzazepine]
19 | 6.3 nM | 2.1 nM | CC(C)(C)C(=O)N[C@@H]1Cc2cc(Cl)ccc2-n2c(nnc2[C@H]2CC[C@H](Oc3ccccn3)CC2)C1 [Example 123, N-{(5R)-8-chloro-1-[trans-4-(pyridin-2-yloxy)cyclohexyl]-5,6-dihydro-4H-[2,4]triazolo[4,3-a][1]benzazepin-5-yl}-2,2-dimethylpropanamide]
20 | 5.1 nM | 1.7 nM | CC(C)C(=O)N[C@@H]1Cc2cc(Cl)ccc2-n2c(nnc2[C@H]2CC[C@H](Oc3ccccn3)CC2)C1 [Example 124, N-{(5R)-8-chloro-1-[trans-4-(pyridin-2-yloxy)cyclohexyl]-5,6-dihydro-4H-[1,2,4]triazolo[4,3-a][1]benzazepin-5-yl}-2-methylpropanamide]
21 | 2.3 nM | 0.8 nM | O=C(N[C@@H]1Cc2cc(Cl)ccc2-n2c(nnc2[C@H]2CC[C@H](Oc3ccccn3)CC2)C1)C1CCC1 [Example 125, N-{(5R)-8-chloro-1-[trans-4-(pyridin-2-yloxy)cyclohexyl]-5,6-dihydro-4H-[1,2,4]triazolo[4,3-a][1]benzazepin-5-yl}cyclobutanecarboxamide]
22 | 17 nM | 2.8 nM | Clc1ccc2c(c1)C[C@H](N1CCCCC1)Cc1nnc([C@H]3CC[C@H](Oc4ccccn4)CC3)n1-2 [Example 127, (5S)-8-chloro-5-(piperidin-1-yl)-1-[trans-4-(pyridin-2-yloxy)cyclohexyl]-5,6-dihydro-4H-[1,2,4]triazolo[4,3-a][1]benzazepine]
23 | 14 nM | 2 nM | CCC(C)N[C@H]1Cc2cc(Cl)ccc2-n2c(nnc2[C@H]2CC[C@H](Oc3ccccn3)CC2)C1 (stereo partly drawn) [Example 128]
24 | 20 nM | 0.5 nM | CC(C)N1CC[C@]2(CC[C@H](c3nnc4n3-c3ccc(Cl)cc3CC3(C4)OCCO3)CC2)C1=O [Example 129, (5s,8s)-8-(8′-chloro-4′H,6′H-spiro[1,3-dioxolane-2,5-[1,2,4]triazolo[4,3-a][1]benzazepin]-1′-yl)-2-(propan-2-yl)-2-azaspiro[4.5]decan-1-one]
25 | 6.1 nM | 2.4 nM | COC1Cc2cc(Cl)ccc2-n2c(nnc2[C@H]2CC[C@H](N3CCOCC3)CC2)C1 (stereo partly drawn) [Example 130, 8-chloro-5-methoxy-1-[trans-4-(morpholin-4-yl)cyclohexyl]-5,6-dihydro-4H-[1,2,4]triazolo[4,3-a][1]benzazepine]
26 | 0.7 nM | 0.3 nM | CCOC1Cc2cc(Cl)ccc2-n2c(nnc2[C@H]2CC[C@H](Oc3ccccn3)CC2)C1 (stereo partly drawn) [Example 131, 8-chloro-5-ethoxy-1-[trans-4-(pyridin-2-yloxy)cyclohexyl]-5,6-dihydro-4H-[1,2,4]triazolo[4,3-a][1]benzazepine]
27 | 1.5 nM | 0.2 nM | COC1Cc2cc(F)ccc2-n2c(nnc2[C@H]2CC[C@H](Oc3ccccn3)CC2)C1 (stereo partly drawn) [Example 134, 8-fluoro-5-methoxy-1-[trans-4-(pyridin-2-yloxy)cyclohexyl]-5,6-dihydro-4H-[1,2,4]triazolo[4,3-a][1]benzazepine]
28 | 54 nM | 2.9 nM | CC(C)NC1Cc2cc(Cl)ccc2-n2c(nnc2C2CCN(c3ccccn3)CC2)C1 (stereo not drawn) [Example 135, 8-chloro-N-(propan-2-yl)-1-[l-(pyridin-2-yl)piperidin-4-yl]-5,6-dihydro-4H-[1,2,4]triazolo[4,3-a][1]benzazepin-5-amine]
29 | 1.6 nM | 0.2 nM | OCCOC1Cc2cc(Cl)ccc2-n2c(nnc2[C@H]2CC[C@H](Oc3ccccn3)CC2)C1 (stereo partly drawn) [Example 136, 2-({8-chloro-1-[trans-4-(pyridin-2-yloxy)cyclohexyl]-5,6-dihydro-4H-[1,2,4]triazolo[4,3-a][1]benzazepin-5-yl}oxy)ethanol]
30 | 9.2 nM | 0.7 nM | CCN(CC)[C@H]1Cc2cc(Cl)ccc2-n2c(nnc2[C@H]2CC[C@H](Oc3ccccn3)CC2)C1 [Example 137, (5S)-8-chloro-N,N-diethyl-1-[trans-4-(pyridin-2-yloxy)cyclohexyl]-5,6-dihydro-4H-[1,2,4]triazolo[4,3-a][1]benzazepin-5-amine]
